These results are taken from patent US11304946B2, “2-hetarylpyrimidine-4-carboxamides as aryl hydrocarbon receptor antagonists” (Bayer Aktiengesellschaft, priority 2017, dated 2022).

The target in one assay is T1, Human AhR (Homo sapiens, UniProt P35869).
T1 construct: host or cells: U87 glioblastoma cells, stably transfected with DRE-driven firefly luciferase and constitutive renilla reporter constructs
T1 sequence (P35869 11-848): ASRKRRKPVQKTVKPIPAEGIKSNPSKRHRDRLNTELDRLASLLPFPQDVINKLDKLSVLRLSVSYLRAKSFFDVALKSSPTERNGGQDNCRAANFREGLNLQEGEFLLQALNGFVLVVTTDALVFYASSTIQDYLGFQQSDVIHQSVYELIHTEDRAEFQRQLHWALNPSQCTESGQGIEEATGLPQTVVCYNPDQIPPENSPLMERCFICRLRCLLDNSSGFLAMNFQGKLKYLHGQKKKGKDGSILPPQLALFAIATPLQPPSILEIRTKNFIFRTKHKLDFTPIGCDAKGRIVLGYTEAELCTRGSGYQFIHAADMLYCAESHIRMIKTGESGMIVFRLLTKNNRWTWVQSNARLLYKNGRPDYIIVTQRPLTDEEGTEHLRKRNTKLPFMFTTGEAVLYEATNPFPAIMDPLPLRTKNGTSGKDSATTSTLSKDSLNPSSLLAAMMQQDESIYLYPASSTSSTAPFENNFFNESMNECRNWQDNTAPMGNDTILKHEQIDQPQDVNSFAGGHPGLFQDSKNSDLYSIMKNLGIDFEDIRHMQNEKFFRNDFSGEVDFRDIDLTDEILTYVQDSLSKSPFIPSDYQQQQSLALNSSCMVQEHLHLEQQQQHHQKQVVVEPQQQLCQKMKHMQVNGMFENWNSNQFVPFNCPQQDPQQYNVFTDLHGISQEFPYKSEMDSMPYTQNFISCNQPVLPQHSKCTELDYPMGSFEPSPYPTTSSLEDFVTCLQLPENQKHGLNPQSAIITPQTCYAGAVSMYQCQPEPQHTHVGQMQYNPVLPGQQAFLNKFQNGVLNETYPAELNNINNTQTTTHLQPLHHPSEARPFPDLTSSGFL
Kind of assay: Transactivation assay in human cell line (in vitro assay 1: antagonism). The class given is cell-based. Conditions: U87 glioblastoma cells, AHR inducible (DRE) firefly luciferase reporter, 150 μM kynurenic acid, 20 hours. In short, it runs like this:
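U87 glioblastoma cells with endogenous AHR, stably carrying DRE-driven firefly luciferase and constitutive Renilla reporters, prestimulated with kynurenic acid before compound. Dual luciferase read-out; Renilla signal used to flag toxicity.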

A further assay deals with T2, Mouse AhR (Mus musculus, UniProt P30561).
T2 sequence (P30561 1-848): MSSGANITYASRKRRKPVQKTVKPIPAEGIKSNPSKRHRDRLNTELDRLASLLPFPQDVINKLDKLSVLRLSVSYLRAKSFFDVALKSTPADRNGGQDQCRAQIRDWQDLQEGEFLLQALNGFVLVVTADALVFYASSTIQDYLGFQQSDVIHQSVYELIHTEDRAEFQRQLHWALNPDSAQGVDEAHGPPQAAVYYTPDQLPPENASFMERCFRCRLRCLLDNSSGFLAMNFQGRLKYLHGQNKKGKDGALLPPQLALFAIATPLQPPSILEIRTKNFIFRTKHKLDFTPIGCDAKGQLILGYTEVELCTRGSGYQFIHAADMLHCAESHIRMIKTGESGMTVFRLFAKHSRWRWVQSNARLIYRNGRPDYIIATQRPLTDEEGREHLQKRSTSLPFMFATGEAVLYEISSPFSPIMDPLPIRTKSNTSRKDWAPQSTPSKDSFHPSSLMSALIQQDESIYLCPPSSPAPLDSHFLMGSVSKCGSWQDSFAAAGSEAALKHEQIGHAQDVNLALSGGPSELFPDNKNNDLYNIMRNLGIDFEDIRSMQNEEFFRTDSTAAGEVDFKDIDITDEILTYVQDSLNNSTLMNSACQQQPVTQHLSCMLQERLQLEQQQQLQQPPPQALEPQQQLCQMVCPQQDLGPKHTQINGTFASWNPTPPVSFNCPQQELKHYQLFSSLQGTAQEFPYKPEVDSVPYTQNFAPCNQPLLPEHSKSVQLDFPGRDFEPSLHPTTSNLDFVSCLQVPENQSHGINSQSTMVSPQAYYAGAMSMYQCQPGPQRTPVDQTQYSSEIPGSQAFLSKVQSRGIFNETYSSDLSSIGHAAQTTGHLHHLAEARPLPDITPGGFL
Kind of assay: Transactivation assay in mouse cell line (in vitro assay 2: antagonism). The format is cell-based. As to conditions: Hepa 1c1c7 cells, AHR inducible (DRE) firefly luciferase reporter, 200 μM kynurenic acid, 20 hours. The protocol: Transactivation Assay in Mouse Cell Line (In Vitro Assay 2)
Transactivation assay was carried out in Hepa 1c1c7 cells (ATCC #CRL-2026) endogenously expressing AHR. In addition the cells were stably transfected with an AHR inducible firefly luciferase reporter gene construct that carried AHR-binding sites (DRE) in its promoter. Kynurenic acid is an endogenous AHR activating ligand and was used to prestimulate test cells prior to testing the antagonistic properties of compounds.
In Vitro Assay 2: Antagonism in Mouse Cell Line
Firefly luciferase activity was determined by the SteadyGlo Luciferase Assay System (Promega, #E2550).
(In general: Reporter assays use an easily measured gene product as a stand-in for the process of interest.)

Turning to `Cc1nn(C)cc1-c1nc(C(=O)N[C@@H](C)CO)cc(-c2ccc(OC(F)(F)F)cc2)n1` [Example 43, 2-(1,3-dimethyl-1H-pyrazol-4-yl)-N-[(2S)-1-hydroxypropan-2-yl]-6-[4-(trifluoromethoxy)phenyl]pyrimidine-4-carboxamide], the results for the half-inhibitory concentration (IC50) at Human AhR and against Mouse AhR were 25.2 nM and 271 nM, respectively.

Consider `CC(C)(O)CNC(=O)c1cc(-c2ccc(Cl)cc2)nc(-c2ccc(C#N)s2)n1` [Example 47, 6-(4-chlorophenyl)-2-(5-cyanothiophen-2-yl)-N-(2-hydroxy-2-methylpropyl)pyrimidine-4-carboxamide], for which the IC50 stood at 317 nM on Human AhR and 961 nM against Mouse AhR.

Take `Cn1nccc1-c1nc(C(=O)NCC(C)(C)O)cc(-c2ccc(Cl)cc2)n1` [Example 54, 6-(4-chlorophenyl)-N-(2-hydroxy-2-methylpropyl)-2-(1-methyl-1H-pyrazol-5-yl)pyrimidine-4-carboxamide]: the results for the half-maximal inhibitory concentration (IC50) against Human AhR and against Mouse AhR were 36.6 nM and 41.1 nM, respectively.

`CC(C)(O)CNC(=O)c1cc(-c2ccc(Cl)cc2)nc(-c2cncnc2)n1` [Example 55, 6-(4-chlorophenyl)-N-(2-hydroxy-2-methylpropyl)[2,5′-bipyrimidine]-4-carboxamide]: the values for the IC50 at Human AhR and on Mouse AhR were 10.3 nM and 17.3 nM, respectively.

Consider `Cc1ccc(-c2nc(C(=O)NCC(C)(C)O)cc(-c3ccc(Cl)cc3)n2)cn1` [Example 60, 6-(4-chlorophenyl)-N-(2-hydroxy-2-methylpropyl)-2-(6-methylpyridin-3-yl)pyrimidine-4-carboxamide], for which the figures for the IC50 against Human AhR and against Mouse AhR were 64.7 nM and 1420 nM, respectively.

Turning to `CC(C)(O)CNC(=O)c1cc(-c2ccc(Cl)cc2)nc(-c2cnn(C3CC3)c2)n1` [Example 68, 6-(4-chlorophenyl)-2-(1-cyclopropyl-1H-pyrazol-4-yl)-N-(2-hydroxy-2-methylpropyl)pyrimidine-4-carboxamide], the IC50 against Human AhR stood at 7240 nM; on Mouse AhR, 9830 nM.

With `C[C@@H](CO)NC(=O)c1cc(-c2ccc(Cl)cc2)nc(-c2ccc(C#N)s2)n1` [Example 70, 6-(4-chlorophenyl)-2-(5-cyanothiophen-2-yl)-N-[(2S)-1-hydroxypropan-2-yl]pyrimidine-4-carboxamide], the IC50 against Human AhR is 94.2 nM; against Mouse AhR, 295 nM.

Consider `Cc1cscc1-c1nc(C(=O)N[C@@H](C)CO)cc(-c2ccc(Cl)cc2)n1` [Example 71, 6-(4-chlorophenyl)-N-[(2S)-1-hydroxypropan-2-yl]-2-(4-methylthiophen-3-yl)pyrimidine-4-carboxamide], for which the IC50 on Human AhR amounted to 3.23 nM; at Mouse AhR, 4.71 nM.

On to `C[C@@H](CO)NC(=O)c1cc(-c2ccc(Cl)cc2)nc(-c2ccc(Cl)s2)n1` [Example 72, 6-(4-chlorophenyl)-2-(5-chlorothiophen-2-yl)-N-[(2S)-1-hydroxypropan-2-yl]pyrimidine-4-carboxamide], for which the IC50 on Human AhR came out at 32.6 nM; against Mouse AhR it was 98.2 nM.

On to `Cc1ccsc1-c1nc(C(=O)N[C@@H](C)CO)cc(-c2ccc(Cl)cc2)n1` [Example 73, 6-(4-chlorophenyl)-N-[(2S)-1-hydroxypropan-2-yl]-2-(3-methylthiophen-2-yl)pyrimidine-4-carboxamide], for which the IC50 on Human AhR was determined as 16.3 nM; against Mouse AhR it was 28.8 nM.

Take `C[C@@H](CO)NC(=O)c1cc(-c2ccc(Cl)cc2)nc(-c2ccnn2C)n1` [Example 74, 6-(4-chlorophenyl)-N-[(2S)-1-hydroxypropan-2-yl]-2-(1-methyl-1H-pyrazol-5-yl)pyrimidine-4-carboxamide]: the IC50 against Human AhR turned out to be 33.6 nM; against Mouse AhR it was 62.9 nM.

Take `C[C@@H](CO)NC(=O)c1cc(-c2ccc(Cl)cc2)nc(-c2cncnc2)n1` [Example 75, 6-(4-chlorophenyl)-N-[(2S)-1-hydroxypropan-2-yl][2,5′-bipyrimidine]-4-carboxamide]: the values for the IC50 against Human AhR and against Mouse AhR were 6.37 nM and 21.2 nM, respectively.

Regarding `Cc1ccc(-c2nc(C(=O)N[C@@H](C)CO)cc(-c3ccc(Cl)cc3)n2)cn1` [Example 79, 6-(4-chlorophenyl)-N-[(2S)-1-hydroxypropan-2-yl]-2-(6-methylpyridin-3-yl)pyrimidine-4-carboxamide], the IC50 came to 108 nM at Human AhR and 671 nM against Mouse AhR.

For the compound `COc1ccncc1-c1nc(C(=O)N[C@@H](C)CO)cc(-c2ccc(Cl)cc2)n1` [Example 80, 6-(4-chlorophenyl)-N-[(2S)-1-hydroxypropan-2-yl]-2-(4-methoxypyridin-3-yl)pyrimidine-4-carboxamide], the results for the IC50 on Human AhR and at Mouse AhR were 2.64 nM and 30.8 nM, respectively.

In the case of `Cc1nn(C)cc1-c1nc(C(=O)N[C@@H](C)CO)cc(-c2ccc(Cl)cc2)n1` [Example 83, 6-(4-chlorophenyl)-2-(1,3-dimethyl-1H-pyrazol-4-yl)-N-[(2S)-1-hydroxypropan-2-yl]pyrimidine-4-carboxamide], the IC50 against Human AhR worked out at 54.2 nM; at Mouse AhR it was 1510 nM.

Regarding `C[C@@H](CO)NC(=O)c1cc(-c2ccc(Cl)cc2)nc(-c2cnn(C3CC3)c2)n1` [Example 85, 6-(4-chlorophenyl)-2-(1-cyclopropyl-1H-pyrazol-4-yl)-N-[(2S)-1-hydroxypropan-2-yl]pyrimidine-4-carboxamide], the concentration for half-maximal inhibition (IC50) against Human AhR was 1200 nM; at Mouse AhR it was 7400 nM.

In the case of `Cn1cc(-c2nc(C(=O)N[C@H](CO)C(C)(C)C)cc(-c3ccc(OC(F)(F)F)cc3)n2)cn1` [Example 88, N-[(2S)-1-hydroxy-3,3-dimethylbutan-2-yl]-2-(1-methyl-1H-pyrazol-4-yl)-6-[4-(trifluoromethoxy)phenyl]pyrimidine-4-carboxamide], the values for the 50% inhibitory concentration (IC50) on Human AhR and on Mouse AhR were 20.4 nM and 8.19 nM, respectively.

Consider `Cn1cc(-c2nc(C(=O)NC(CO)(CO)C(F)(F)F)cc(-c3ccc(OC(F)(F)F)cc3)n2)cn1` [Example 89, 2-(1-methyl-1H-pyrazol-4-yl)-N-[1,1,1-trifluoro-3-hydroxy-2-(hydroxymethyl)propan-2-yl]-6-[4-(trifluoromethoxy)phenyl]pyrimidine-4-carboxamide], for which the half-maximal inhibitory concentration (IC50) on Human AhR is 7.95 nM; against Mouse AhR it was 4.34 nM.

As for `Cn1cc(-c2nc(C(=O)NC(CO)Cc3cccnc3)cc(-c3ccc(OC(F)(F)F)cc3)n2)cn1` (stereo not shown) [Example 93, N-[1-hydroxy-3-(pyridin-3-yl)propan-2-yl]-2-(1-methyl-1H-pyrazol-4-yl)-6-[4-(trifluoromethoxy)phenyl]pyrimidine-4-carboxamide], the half-maximal inhibitory concentration (IC50) came out at 34.1 nM against Human AhR and 16.5 nM on Mouse AhR.

For the compound `Cn1cc(-c2nc(C(=O)NC(CO)C3CCC3)cc(-c3ccc(OC(F)(F)F)cc3)n2)cn1` (stereo not shown) [Example 94, N-(1-cyclobutyl-2-hydroxyethyl)-2-(1-methyl-1H-pyrazol-4-yl)-6-[4-(trifluoromethoxy)phenyl]pyrimidine-4-carboxamide], the half-maximal inhibitory concentration (IC50) at Human AhR turned out to be 5.44 nM; on Mouse AhR it was 24.3 nM.

As a reminder, the IC50 is the concentration needed to halve the response being measured. A low value points to higher potency.
